From PubChem BioAssay (NCI)
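Cells were grown in 96-well plates and exposed to each compound for 48 hours at five concentrations; endpoints were interpolated linearly between bracketing concentrations, or set to the highest concentration if not reached. TGI denotes the concentration required for complete inhibition of growth.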

Assays:
Assay in all cases: NCI anticancer screen, dose series, 48 h
786-0 renal = tested on: 786-0 renal
A498 renal = tested on: A498 renal
A549 NSCLC = tested on: A549 NSCLC
ACHN renal = tested on: ACHN renal
BT-549 breast = tested on: BT-549 breast
CAKI-1 renal = tested on: CAKI-1 renal
CCRF-CEM leukemia = tested on: CCRF-CEM leukemia
COLO 205 colon = tested on: COLO 205 colon
DU-145 prostate = tested on: DU-145 prostate
EKVX NSCLC = tested on: EKVX NSCLC
HCC-2998 colon = tested on: HCC-2998 colon
HCT-116 colon = tested on: HCT-116 colon
HL-60(TB) leukemia = tested on: HL-60(TB) leukemia
HOP-62 NSCLC = tested on: HOP-62 NSCLC
HOP-92 NSCLC = tested on: HOP-92 NSCLC
HS 578T breast = tested on: HS 578T breast
HT29 colon = tested on: HT29 colon
IGROV1 ovarian = tested on: IGROV1 ovarian
K-562 leukemia = tested on: K-562 leukemia
KM12 colon = tested on: KM12 colon
M14 melanoma = tested on: M14 melanoma
MALME-3M melanoma = tested on: MALME-3M melanoma
MCF7 breast = tested on: MCF7 breast
MDA-MB-231 breast = tested on: MDA-MB-231 breast
MDA-MB-435 = tested on: MDA-MB-435
MDA-N = tested on: MDA-N
MOLT-4 leukemia = tested on: MOLT-4 leukemia
NCI-H226 lung = tested on: NCI-H226 lung
NCI-H23 lung = tested on: NCI-H23 lung
NCI-H460 lung = tested on: NCI-H460 lung
NCI-H522 lung = tested on: NCI-H522 lung
OVCAR-3 ovarian = tested on: OVCAR-3 ovarian
OVCAR-4 ovarian = tested on: OVCAR-4 ovarian
OVCAR-5 ovarian = tested on: OVCAR-5 ovarian
OVCAR-8 ovarian = tested on: OVCAR-8 ovarian
PC-3 prostate = tested on: PC-3 prostate
RXF 393 renal = tested on: RXF 393 renal
SF-268 CNS = tested on: SF-268 CNS
SF-295 CNS = tested on: SF-295 CNS
SF-539 CNS = tested on: SF-539 CNS
SK-MEL-28 melanoma = tested on: SK-MEL-28 melanoma
SK-MEL-5 melanoma = tested on: SK-MEL-5 melanoma
SK-OV-3 ovarian = tested on: SK-OV-3 ovarian
SN12C renal = tested on: SN12C renal
SNB-19 CNS = tested on: SNB-19 CNS
SNB-75 CNS = tested on: SNB-75 CNS
SR leukemia = tested on: SR leukemia
SW-620 colon = tested on: SW-620 colon
T-47D breast = tested on: T-47D breast
TK-10 renal = tested on: TK-10 renal
U251 CNS = tested on: U251 CNS
UACC-257 melanoma = tested on: UACC-257 melanoma
UACC-62 melanoma = tested on: UACC-62 melanoma
UO-31 renal = tested on: UO-31 renal
HCT-15 colon = tested on: HCT-15 colon
LOX IMVI melanoma = tested on: LOX IMVI melanoma
NCI/ADR-RES ovarian = tested on: NCI/ADR-RES ovarian
RPMI-8226 leukemia = tested on: RPMI-8226 leukemia
SK-MEL-2 melanoma = tested on: SK-MEL-2 melanoma

`CCCCCCCC(CC(=O)NC(CO)C(=O)NC(CO)CC(C)C)OC(=O)CC(CCCCCCC)OC(=O)CC(CCCCCCC)OC1OC(C)C(O)C(OC2OC(C)C(O)C(OC(C)=O)C2O)C1O` (configuration not stated) showed a TGI (786-0 renal) of 26.4 µM, a TGI (A498 renal) of 26.1 µM and a TGI (A549 NSCLC) of 25 µM. It also gave a TGI (ACHN renal) of 31.4 µM, a TGI (BT-549 breast) of 19.9 µM and a TGI (CAKI-1 renal) of 30.2 µM. For the same compound, the TGI (CCRF-CEM leukemia) was 21.4 µM, the TGI (COLO 205 colon) was 18.9 µM and the TGI (DU-145 prostate) was 23.4 µM. The TGI (EKVX NSCLC) was 28.7 µM, the TGI (HCC-2998 colon) was 23.2 µM and the TGI (HCT-116 colon) was 25.8 µM. It also gave a TGI (HL-60(TB) leukemia) of 23.4 µM, a TGI (HOP-62 NSCLC) of 24.8 µM and a TGI (HOP-92 NSCLC) of 22.8 µM. For the same compound, the TGI (HS 578T breast) was 20.3 µM, the TGI (HT29 colon) was 20.4 µM and the TGI (IGROV1 ovarian) was 24.8 µM. It also gave a TGI (K-562 leukemia) of 31.4 µM, a TGI (KM12 colon) of 22.1 µM and a TGI (M14 melanoma) of 22.6 µM. It also gave a TGI (MALME-3M melanoma) of 33.4 µM, a TGI (MCF7 breast) of 24.7 µM and a TGI (MDA-MB-231 breast) of 23.4 µM. For the same compound, the TGI (MDA-MB-435) was 23 µM, the TGI (MDA-N) was 19.5 µM and the TGI (MOLT-4 leukemia) was 16.8 µM. It also gave a TGI (NCI-H226 lung) of 35.1 µM, a TGI (NCI-H23 lung) of 27.9 µM and a TGI (NCI-H460 lung) of 26.1 µM. It also gave a TGI (NCI-H522 lung) of 28.4 µM, a TGI (OVCAR-3 ovarian) of 23 µM and a TGI (OVCAR-4 ovarian) of 27.8 µM. The TGI (OVCAR-5 ovarian) was 24 µM, the TGI (OVCAR-8 ovarian) was 28.3 µM and the TGI (PC-3 prostate) was 20.6 µM. It also gave a TGI (RXF 393 renal) of 20.9 µM, a TGI (SF-268 CNS) of 25.9 µM and a TGI (SF-295 CNS) of 30.2 µM. For the same compound, the TGI (SF-539 CNS) was 24.5 µM, the TGI (SK-MEL-28 melanoma) was 24.6 µM and the TGI (SK-MEL-5 melanoma) was 25.1 µM. It also gave a TGI (SK-OV-3 ovarian) of 30.8 µM, a TGI (SN12C renal) of 19.9 µM and a TGI (SNB-19 CNS) of 20.4 µM. It also gave a TGI (SNB-75 CNS) of 19.1 µM, a TGI (SR leukemia) of 13.2 µM and a TGI (SW-620 colon) of 28.8 µM. The TGI (T-47D breast) was 26.8 µM, the TGI (TK-10 renal) was 29.2 µM and the TGI (U251 CNS) was 17.2 µM. The TGI (UACC-257 melanoma) was 18.5 µM, the TGI (UACC-62 melanoma) was 25.8 µM and the TGI (UO-31 renal) was 28.3 µM.
`O=c1[nH]c(=O)n(C/C=C/CO)nc1Br` showed a TGI (786-0 renal) greater than 100 µM, a TGI (A498 renal) greater than 100 µM and a TGI (A549 NSCLC) greater than 100 µM. For the same compound, the TGI (ACHN renal) was greater than 100 µM, the TGI (BT-549 breast) was greater than 100 µM and the TGI (CAKI-1 renal) was greater than 100 µM. For the same compound, the TGI (CCRF-CEM leukemia) was greater than 100 µM, the TGI (COLO 205 colon) was greater than 100 µM and the TGI (DU-145 prostate) was greater than 100 µM. For the same compound, the TGI (EKVX NSCLC) was greater than 100 µM, the TGI (HCC-2998 colon) was greater than 100 µM and the TGI (HCT-116 colon) was greater than 100 µM. It also gave a TGI (HCT-15 colon) greater than 100 µM, a TGI (HL-60(TB) leukemia) greater than 100 µM and a TGI (HOP-62 NSCLC) greater than 100 µM. The TGI (HOP-92 NSCLC) was greater than 100 µM, the TGI (HS 578T breast) was greater than 100 µM and the TGI (HT29 colon) was greater than 100 µM. The TGI (IGROV1 ovarian) was greater than 100 µM, the TGI (KM12 colon) was greater than 100 µM and the TGI (LOX IMVI melanoma) was greater than 100 µM. It also gave a TGI (M14 melanoma) greater than 100 µM, a TGI (MALME-3M melanoma) greater than 100 µM and a TGI (MCF7 breast) greater than 100 µM. It also gave a TGI (MDA-MB-231 breast) greater than 100 µM, a TGI (MDA-MB-435) greater than 100 µM and a TGI (MDA-N) greater than 100 µM. The TGI (MOLT-4 leukemia) was greater than 100 µM, the TGI (NCI-H226 lung) was greater than 100 µM and the TGI (NCI-H23 lung) was greater than 100 µM. For the same compound, the TGI (NCI-H460 lung) was greater than 100 µM, the TGI (NCI-H522 lung) was greater than 100 µM and the TGI (NCI/ADR-RES ovarian) was greater than 100 µM. It also gave a TGI (OVCAR-3 ovarian) greater than 100 µM, a TGI (OVCAR-4 ovarian) greater than 100 µM and a TGI (OVCAR-5 ovarian) greater than 100 µM. The TGI (OVCAR-8 ovarian) was greater than 100 µM, the TGI (PC-3 prostate) was greater than 100 µM and the TGI (RPMI-8226 leukemia) was greater than 100 µM. It also gave a TGI (RXF 393 renal) greater than 100 µM, a TGI (SF-268 CNS) greater than 100 µM and a TGI (SF-295 CNS) greater than 100 µM. For the same compound, the TGI (SF-539 CNS) was greater than 100 µM, the TGI (SK-MEL-2 melanoma) was greater than 100 µM and the TGI (SK-MEL-28 melanoma) was greater than 100 µM. For the same compound, the TGI (SK-MEL-5 melanoma) was greater than 100 µM, the TGI (SN12C renal) was greater than 100 µM and the TGI (SNB-19 CNS) was greater than 100 µM. It also gave a TGI (SNB-75 CNS) greater than 100 µM, a TGI (SR leukemia) greater than 100 µM and a TGI (SW-620 colon) greater than 100 µM. For the same compound, the TGI (T-47D breast) was greater than 100 µM, the TGI (TK-10 renal) was greater than 100 µM and the TGI (U251 CNS) was greater than 100 µM. The TGI (UACC-257 melanoma) was greater than 100 µM, the TGI (UACC-62 melanoma) was greater than 100 µM and the TGI (UO-31 renal) was greater than 100 µM.
`CC12Nc3c(Cl)cc(Cl)cc3N1C(=O)c1ccccc12` (configuration not stated) showed a TGI (786-0 renal) greater than 100 µM, a TGI (A498 renal) of 99.9 µM and a TGI (A549 NSCLC) greater than 100 µM. For the same compound, the TGI (ACHN renal) was greater than 100 µM, the TGI (BT-549 breast) was greater than 100 µM and the TGI (CAKI-1 renal) was greater than 100 µM. The TGI (CCRF-CEM leukemia) was greater than 100 µM, the TGI (COLO 205 colon) was greater than 100 µM and the TGI (DU-145 prostate) was greater than 100 µM. It also gave a TGI (EKVX NSCLC) greater than 100 µM, a TGI (HCC-2998 colon) greater than 100 µM and a TGI (HCT-116 colon) greater than 100 µM. It also gave a TGI (HCT-15 colon) greater than 100 µM, a TGI (HL-60(TB) leukemia) greater than 100 µM and a TGI (HOP-62 NSCLC) greater than 100 µM. For the same compound, the TGI (HOP-92 NSCLC) was 82.1 µM, the TGI (HS 578T breast) was greater than 100 µM and the TGI (HT29 colon) was greater than 100 µM. For the same compound, the TGI (IGROV1 ovarian) was greater than 100 µM, the TGI (KM12 colon) was greater than 100 µM and the TGI (LOX IMVI melanoma) was greater than 100 µM. For the same compound, the TGI (MALME-3M melanoma) was greater than 100 µM, the TGI (MCF7 breast) was greater than 100 µM and the TGI (MDA-MB-231 breast) was greater than 100 µM. It also gave a TGI (MDA-MB-435) greater than 100 µM, a TGI (MDA-N) greater than 100 µM and a TGI (MOLT-4 leukemia) greater than 100 µM. The TGI (NCI-H226 lung) was greater than 100 µM, the TGI (NCI-H23 lung) was greater than 100 µM and the TGI (NCI-H460 lung) was greater than 100 µM. For the same compound, the TGI (NCI-H522 lung) was greater than 100 µM, the TGI (NCI/ADR-RES ovarian) was greater than 100 µM and the TGI (OVCAR-3 ovarian) was greater than 100 µM. The TGI (OVCAR-4 ovarian) was greater than 100 µM, the TGI (OVCAR-5 ovarian) was greater than 100 µM and the TGI (OVCAR-8 ovarian) was greater than 100 µM. The TGI (PC-3 prostate) was greater than 100 µM, the TGI (RPMI-8226 leukemia) was greater than 100 µM and the TGI (RXF 393 renal) was greater than 100 µM. The TGI (SF-268 CNS) was greater than 100 µM, the TGI (SF-295 CNS) was greater than 100 µM and the TGI (SF-539 CNS) was greater than 100 µM. For the same compound, the TGI (SK-MEL-2 melanoma) was greater than 100 µM, the TGI (SK-MEL-28 melanoma) was greater than 100 µM and the TGI (SK-MEL-5 melanoma) was greater than 100 µM. For the same compound, the TGI (SK-OV-3 ovarian) was greater than 100 µM, the TGI (SN12C renal) was greater than 100 µM and the TGI (SNB-75 CNS) was greater than 100 µM. For the same compound, the TGI (SR leukemia) was greater than 100 µM, the TGI (SW-620 colon) was greater than 100 µM and the TGI (T-47D breast) was greater than 100 µM. The TGI (TK-10 renal) was greater than 100 µM, the TGI (U251 CNS) was greater than 100 µM and the TGI (UACC-257 melanoma) was greater than 100 µM. It also gave a TGI (UACC-62 melanoma) greater than 100 µM and a TGI (UO-31 renal) greater than 100 µM.
